The assay has as its system Bovine cardiac myofibrils. Briefly: In vitro model of dose-dependent myofibril ATPase modulation (AC1.4, pyruvate kinase/lactate dehydrogenase-coupled ATPase assay at pCa25). The settings on record: concentration at which ATPase activity was 1.4-fold higher than the bottom of the dose curve, mean of a minimum of two independent tests. The assay is classed as biochemical. In a few lines:
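Compound dilutions were premixed with myofibrils, coupling enzymes, EGTA and CaCl2, then the reaction was started with an equal volume carrying ATP (final 1 mM), NADH and PEP. ATP turnover was followed at 340 nm, and dose responses were fit to a four-parameter equation.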

As for `N#CC1CN(S(=O)(=O)c2cccc(C(=O)N3CCC[C@@H]3C(=O)NCCn3ccc(C(F)(F)F)n3)c2)C1` [Example 689, 1-((3-((3-cyano-1-azetidinyl)sulfonyl)phenyl)carbonyl)-N-(2-(3-(trifluoromethyl)-1H-pyrazol-1-yl)ethyl)-D-prolinamide], the AC1.4 turned out to be 5.334 µM.

`CS(=O)(=O)c1cc(C(=O)N2CCC[C@@H]2C(=O)N[C@@H](c2ccc(C(F)(F)F)cc2F)C2CC2)ccc1F` [Example 690, N-((R)-cyclopropyl(2-fluoro-4-(trifluoromethyl)phenyl)methyl)-1-(4-fluoro-3-(methylsulfonyl)benzoyl)-D-prolinamide]: the AC1.4 is 5.354 µM. Regarding `CC1(c2cccc(C(=O)N3CCC[C@@H]3C(=O)N[C@@H](c3ccc(C(F)(F)F)cc3F)C3CC3)c2)COC1` [Example 691, N-((R)-cyclopropyl(2-fluoro-4-(trifluoromethyl)phenyl)methyl)-1-(3-(3-methyl-3-oxetanyl)benzoyl)-D-prolinamide], the AC1.4 was found to be 5.3575 µM. For the compound `COCC(=O)NC1CN(S(=O)(=O)N2CCC[C@H](C(=O)N3CCC[C@@H]3C(=O)NCc3ccc(C(F)(F)F)cc3)C2)C1` [Example 692, 1-(((3S)-1-((3-((methoxyacetyl)amino)-1-azetidinyl)sulfonyl)-3-piperidinyl)carbonyl)-N-(4-(trifluoromethyl)benzyl)-D-prolinamide], the AC1.4 was 5.379 µM.

`CN1C[C@H](C(=O)N[C@@H](c2ccc(C(F)(F)F)cc2F)C2CC2)N(C(=O)c2cccc(S(C)(=O)=O)c2)C1=O` [Example 693, (4R)-N-((R)-cyclopropyl(2-fluoro-4-(trifluoromethyl)phenyl)methyl)-1-methyl-3-(3-(methylsulfonyl)benzoyl)-2-oxo-4-imidazolidinecarboxamide] came in with an AC1.4 of 5.425 µM.

With `N#CC1CN(S(=O)(=O)N2CCC[C@H](C(=O)N3CCC[C@H]3C(=O)NCc3cc(F)cc(F)c3)C2)C1` [Example 694, 1-(((3S)-1-((3-cyano-1-azetidinyl)sulfonyl)-3-piperidinyl)carbonyl)-N-(3,5-difluorobenzyl)-L-prolinamide], the AC1.4 was 5.48 µM. `Cc1cncc(C(=O)N2[C@@H](C(=O)N[C@@H](c3cc(F)c(Cl)cc3F)C3COC3)C[C@H]3C[C@H]32)c1` [Example 695, (1R,3R,5R)-N-((R)-(4-chloro-2,5-difluorophenyl)(3-oxetanyl)methyl)-2-((5-methyl-3-pyridinyl)carbonyl)-2-azabicyclo[3.1.0]hexane-3-carboxamide] gave an AC1.4 of 5.5132 µM.

The compound `CN1CC(C(=O)N[C@@H](c2ccc(C(F)(F)F)cc2F)C2CC2)N(C(=O)c2cccc(S(C)(=O)=O)c2)C1=O` (stereo partly drawn) [Example 696, N-((R)-cyclopropyl(2-fluoro-4-(trifluoromethyl)phenyl)methyl)-1-methyl-3-(3-(methylsulfonyl)benzoyl)-2-oxoimidazolidine-4-carboxamide] registered an AC1.4 of 5.525 µM. The result for `O=C(NCc1ccc(C(F)(F)F)cc1)[C@H]1CCCN1C(=O)[C@H]1CCCN(S(=O)(=O)N2CCC2c2ccc(Cl)cc2)C1` (stereo partly drawn) [Example 697, (2R)-1-((3S)-1-((2-(4-chlorophenyl)azetidin-1-yl)sulfonyl)piperidine-3-carbonyl)-N-(4-(trifluoromethyl)benzyl)pyrrolidine-2-carboxamide] reads 5.5445 µM; that for `C[C@@H](NC(=O)[C@H]1CCCN1C(=O)[C@H]1CCCN(S(=O)(=O)N2CC(C#N)C2)C1)c1ccc(F)cc1OC(F)F` [Example 698, 1-(((3S)-1-((3-cyano-1-azetidinyl)sulfonyl)-3-piperidinyl)carbonyl)-N-((1R)-1-(2-(difluoromethoxy)-4-fluorophenyl)ethyl)-D-prolinamide], 5.5675 µM.

Regarding `O=C(NCc1ccc(C(F)(F)F)cc1)[C@H]1CCCN1C(=O)[C@H]1CCCN(S(=O)(=O)N2CC(Cc3ccc(Cl)cc3)C2)C1` [Example 699, 1-(((3S)-1-((3-(4-chlorobenzyl)-1-azetidinyl)sulfonyl)-3-piperidinyl)carbonyl)-N-(4-(trifluoromethyl)benzyl)-D-prolinamide], the AC1.4 was 5.5865 µM. The compound `COc1ccc(F)cc1CNC(=O)[C@H]1CCCN1C(=O)[C@H]1CCCN(S(=O)(=O)N2CC(C#N)C2)C1` [Example 700, (((3S)-1-((3-cyano-1-azetidinyl)sulfonyl)-3-piperidinyl)carbonyl)-N-(5-fluoro-2-methoxybenzyl)-D-prolinamide] displayed an AC1.4 of 5.588 µM. `N#Cc1cccc(C(=O)N2CCC[C@@H]2C(=O)N[C@@H](c2ccc(C(F)(F)F)cc2F)C2CC2)c1` [Example 701, 1-(3-cyanobenzoyl)-N-((R)-cyclopropyl(2-fluoro-4-(trifluoromethyl)phenyl)methyl)-D-prolinamide] had an AC1.4 of 5.643 µM. Compound `Cc1ccnc(C(=O)N2[C@@H](C(=O)N[C@@H](c3cc(F)c(Cl)cc3F)C3CC3)C[C@H]3C[C@H]32)c1` [Example 702, (1R,3R,5R)-N-((R)-(4-chloro-2,5-difluorophenyl)(cyclopropyl)methyl)-2-((4-methyl-2-pyridinyl)carbonyl)-2-azabicyclo[3.1.0]hexane-3-carboxamide] came in with an AC1.4 of 5.6535 µM. `O=C(NCc1ccc(C(F)(F)F)cc1)[C@H]1CCCN1C(=O)[C@H]1CCCN(S(=O)(=O)N2CC(F)(F)C2)C1` [Example 703, 1-(((3S)-1-((3,3-difluoro-1-azetidinyl)sulfonyl)-3-piperidinyl)carbonyl)-N-(4-(trifluoromethyl)benzyl)-D-prolinamide] registered an AC1.4 of 5.723 µM.

As to `CS(=O)(=O)N1CC(c2cccc(C(=O)N3CCC[C@@H]3C(=O)N[C@@H](c3ccc(C(F)(F)F)cc3F)C3CC3)c2)C1` [Example 704], the AC1.4 worked out at 5.725 µM. Compound `N#CC1CN(S(=O)(=O)N2CCC[C@H](C(=O)N3CCC[C@@H]3C(=O)NC3Cc4ccccc43)C2)C1` (stereo partly drawn) [Example 705, (2R)-N-(bicyclo[4.2.0]octa-1 (6),2,4-trien-7-yl)-1-((S)-1-((3-cyanoazetidin-1-yl)sulfonyl)piperidine-3-carbonyl)pyrrolidine-2-carboxamide] returned an AC1.4 of 5.7373 µM. The value for `CS(=O)(=O)c1cccc(C(=O)N2C[C@@H](F)C[C@@H]2C(=O)N[C@@H](c2ccc(C(F)(F)F)cc2F)C2(F)COC2)c1` [Example 706, (4S)-4-fluoro-N-((S)-(3-fluoro-3-oxetanyl)(2-fluoro-4-(trifluoromethyl)phenyl)methyl)-1-(3-(methylsulfonyl)benzoyl)-D-prolinamide] was 5.7465 µM; that for `O=C(NCc1ccc(C(F)(F)F)cc1)[C@H]1CCCN1C(=O)[C@H]1CCCN(S(=O)(=O)N2CC(c3ccccn3)C2)C1` [Example 707, 1-(((3S)-1-((3-(2-pyridinyl)-1-azetidinyl)sulfonyl)-3-piperidinyl)carbonyl)-N-(4-(trifluoromethyl)benzyl)-D-prolinamide] was 5.821 µM; that for `CCOc1ccc(CNC(=O)[C@H]2CCCN2C(=O)[C@H]2CCCN(S(=O)(=O)N3CC(C#N)C3)C2)cc1F` [Example 708, 1-(((3S)-1-((3-cyano-1-azetidinyl)sulfonyl)-3-piperidinyl)carbonyl)-N-(4-ethoxy-3-fluorobenzyl)-D-prolinamide] was 5.8345 µM. `O=C(NC1CN(S(=O)(=O)N2CCC[C@H](C(=O)N3CCC[C@@H]3C(=O)NCc3ccc(C(F)(F)F)cc3)C2)C1)C1CC1` [Example 710, 1-(((3S)-1-((3-((cyclopropylcarbonyl)amino)-1-azetidinyl)sulfonyl)-3-piperidinyl)carbonyl)-N-(4-(trifluoromethyl)benzyl)-D-prolinamide]: the AC1.4 worked out at 5.887 µM. `CN(C)C(=O)C1CN(S(=O)(=O)N2CCC[C@H](C(=O)N3CCC[C@@H]3C(=O)NCc3ccc(C(F)(F)F)cc3)C2)C1` [Example 712, (R)-1-((S)-1-((3-(dimethylcarbamoyl)azetidin-1-yl)sulfonyl)piperidine-3-carbonyl)-N-(4-(trifluoromethyl)benzyl)pyrrolidine-2-carboxamide] displayed an AC1.4 of 5.9215 µM. `O=C(N[C@@H](c1cc(F)c(Cl)cc1F)C1CC1)[C@H]1C[C@H]2C[C@H]2N1C(=O)c1cc(C2CC2)ccn1` [Example 713, (1R,3R,5R)-N-((R)-(4-chloro-2,5-difluorophenyl)(cyclopropyl)methyl)-2-((4-cyclopropyl-2-pyridinyl)carbonyl)-2-azabicyclo[3.1.0]hexane-3-carboxamide] showed an AC1.4 of 6.039 µM. With `Cc1ccc(C(F)(F)F)cc1CNC(=O)[C@H]1CCCN1C(=O)[C@H]1CCCN(S(=O)(=O)N2CC(C#N)C2)C1` [Example 714, 1-(((3S)-1-((3-cyano-1-azetidinyl)sulfonyl)-3-piperidinyl)carbonyl)-N-(2-methyl-5-(trifluoromethyl)benzyl)-D-prolinamide], the AC1.4 came out at 6.0545 µM. As for `Cc1cccc(C(=O)N2CCC[C@@H]2C(=O)N[C@@H](c2ccc(C(F)(F)F)cc2F)C2CC2)c1` [Example 715, N-((R)-cyclopropyl(2-fluoro-4-(trifluoromethyl)phenyl)methyl)-1-(3-methylbenzoyl)-D-prolinamide], the AC1.4 came out at 6.057 µM. In the case of `Cc1ccc(S(N)(=O)=O)cc1C(=O)N1CCC[C@@H]1C(=O)N[C@@H](c1ccc(C(F)(F)F)cc1F)C1CC1` [Example 716, N-((R)-cyclopropyl(2-fluoro-4-(trifluoromethyl)phenyl)methyl)-1-(2-methyl-5-sulfamoylbenzoyl)-D-prolinamide], the AC1.4 came to 6.168 µM. For the compound `Cc1cc(C(=O)N2[C@@H](C(=O)N[C@@H](c3cc(F)c(C(F)(F)F)cc3F)C3CC3)C[C@H]3C[C@H]32)ccn1` [Example 717, (1R,3R,5R)-N-((R)-cyclopropyl(2,5-difluoro-4-(trifluoromethyl)phenyl)methyl)-2-((2-methyl-4-pyridinyl)carbonyl)-2-azabicyclo[3.1.0]hexane-3-carboxamide], the AC1.4 stood at 6.259 µM.

The values above are taken from patent US11780826B2 (Amgen Inc., priority 2017, dated 2023).
